Patent publication US9480259B2, “Pyrazolopyrans having herbicidal and pharmaceutical properties” (BASF SE, priority 2012, dated 2016)

Target: Arabidopsis thaliana SHMT
Test: SHMT activity assay (ED50 SHMT), coupled with N5,N10-CH2-THF dehydrogenase, NADH at 340 nm
Type: biochemical
Protocol: Determination of the ED50 SHMT was carried out as described hereinunder.
Purification of Arabidopsis thaliana SHMT
The following buffers were used during the purification protocol:
Buffer A (Lysis and Wash Buffer): • 20 mM Na-Phosphat (pH 7,4) • 500 mM NaCI • 40 mM Imidazole • 1.0 mM L-Serine • 0.5 mM Pyridoxal-5-phosphate • 0.5 mM DTT
Buffer B (Elution Buffer): • 20 mM Na-Phosphat (pH 7,4) • 500 mM NaCl • 250 mM Imidazole • 1.0 mM L-Serine • 0.5 mM Pyridoxal-5-phosphate • 0.5 mM DTT
All procedures were conducted at 4° C. or on ice. Pellets were suspended in Buffer A containing 1 mg/ml DNAse +Complete EDTA-free protease inhibitor tablet. Cells were lysed using sonication or a French Press device, using standard settings. Lysis was centrifuged at 40000×g for 25 minutes. The supernatant was filtered (0.22 μM) before loading onto a Ni-NTA column.
A gravity flow column containing Ni-NTA resin was equilibrated with 10 CV Buffer A and loaded with filtered cell lysate. The column was then washed with 10 CV Buffer A. Elution was afforded using Buffer B and collected manually as mini-factions. EDTA was added after elution to a final concentration of 1 mM. Fractions were pooled on the basis of the correct band for SHMT visualised via SDS-PAGE and staining.
SHMT Assay Buffer: • 50 mM KH2PO4 (pH 7,4) • 2.0 mM NAD+ • 7.5 mM DTT • 0.3 mM Tetrahydrofolic acid • 4% DMSO
Reaction Start: 20 mM L-Serine
The rate of N5,N10-CH2-THF formation catalyzed by SHMT was monitored at 340 nm by coupling with excess N5,N10-CH2-THF dehydrogenase, which converts NAD+to NADH. Reactions were initiated by adding 20 mM L-Serine. Inhibition of initial velocity was determined by adding various inhibitors of the SHMT reaction and monitored as described. Reactions were measured in a Bio Tek micro titer plate reader following the change in absorption with the formation of NADH for 30 mimnutes.

[1] = Table 2, values given as upper bounds
[2] = Table 2, Arabidopsis thaliana SHMT enzyme assay, values given as upper bounds
[3] = inhibition of initial velocity of Arabidopsis thaliana SHMT
[4] = Arabidopsis thaliana SHMT enzyme assay, values given as upper bounds

EC50 [1] [nM]	EC50 [2] [nM]	further results	SMILES
< 100			Cc1n[nH]c2c1C(CC(C)C)(c1cc(Cl)cc(Cl)c1)C(C#N)=C(N)O2 (stereo not shown) [Compound 2.125.]
	< 10		Cc1n[nH]c2c1C(c1cc(Cl)cc(Oc3cccc(C(F)(F)F)c3)c1)(C1CCC1)C(C#N)=C(N)O2 (stereo not shown) [Compound 2.234]
	< 10		Cc1n[nH]c2c1C(c1cc(C#N)cc(C#N)c1)(C1(F)CC1)C(C#N)=C(N)O2 (stereo not shown) [Compound 2.383]
	< 10		Cc1n[nH]c2c1C(c1cc(-c3nnn[nH]3)cc(C(F)(F)F)c1)(C1CCC1)C(C#N)=C(N)O2 (stereo not shown) [Compound 2.355]
< 10			Cc1n[nH]c2c1C(c1cc(C#N)cc(-c3cc(C(=O)O)cc(C(F)(F)F)c3)c1)(C1CCC1)C(C#N)=C(N)O2 (stereo not shown) [Compound 2.644]
	< 100		N#CC1=C(N)Oc2[nH]ncc2C1(c1cc(Cl)cc(C#N)c1)C1CC1 (stereo not shown) [Compound 2.360]
< 100			Cc1n[nH]c2c1C(c1ccc(F)c(Cl)c1)(C(C)C)C(C#N)=C(N)O2 (stereo not shown) [Compound 2.134.]
< 1000			CCC1(c2cc(Br)cc(C#N)c2)C(C#N)=C(N)Oc2[nH]nc(COC)c21 (stereo not shown) [Compound 2.590]
	< 10		COc1ccc(C2(C(C)C)C(C#N)=C(N)Oc3[nH]ncc32)cc1Br (stereo not shown) [Compound 2.322]
< 100			Cc1n[nH]c2c1C(c1ccc(CCC(=O)O)c(Cl)c1)(C1CCC1)C(C#N)=C(N)O2 (stereo not shown) [Compound 2.542]
< 1000			Cc1n[nH]c2c1C(c1ccc(Cl)cc1)(C(F)(F)C(F)(F)F)C(C#N)=C(N)O2 (stereo not shown) [Compound 2.96.]
	< 10000		N#CC1=C(N)Oc2[nH]nc(O)c2C1(c1cc(F)cc(Cl)c1)C1CCC1 (stereo not shown) [Compound 2.231]
< 1000			CCCCCCc1n[nH]c2c1C(CC)(c1cccc(Cl)c1)C(C#N)=C(N)O2 (stereo not shown) [Compound 2.197.]
		EC50 [3]: < 100 nM	Cc1n[nH]c2c1C(c1ccc3[nH]c(C(F)(F)F)nc3c1)(C1CCC1)C(C#N)=C(N)O2 (stereo not shown) [Compound 4.48]
		EC50 [4]: < 10000 nM	Cc1n[nH]c2c1C(c1cc(C#N)cc(-c3ccc(C(=O)O)o3)c1)(C1(F)COC1)C(C#N)=C(N)O2 (stereo not shown) [Compound 2.681]
< 10			CCC1(c2cc(Cl)cc(Br)c2)C(C#N)=C(N)Oc2[nH]nc(C)c21 (stereo not shown) [Compound 2.468]
	< 10		COc1c(Cl)cc(C2(C(C)C)C(C#N)=C(N)Oc3[nH]ncc32)cc1Cl (stereo not shown) [Compound 2.330]
	< 10		Cc1n[nH]c2c1C(c1cccc(OC(F)(F)C(F)F)c1)(C1CCC1)C(C#N)=C(N)O2 (stereo not shown) [Compound 2.356]
< 10000			CCC1(c2ccc(OS(=O)(=O)c3ccc(Cl)c(Cl)c3)c(C)c2)C(C#N)=C(N)Oc2[nH]nc(C)c21 (stereo not shown) [Compound 2.56.]
	< 10		Cc1n[nH]c2c1C(c1cc(C#N)cc(-c3ccsc3)c1)(C1CCC1)C(C#N)=C(N)O2 (stereo not shown) [Compound 2.329]

EC50 [1] [nM]	EC50 [2] [nM]	further results	SMILES
	< 10		Cc1n[nH]c2c1C(c1cc(Cl)cc(Cl)c1)(C1CC=CC1)C(C#N)=C(N)O2 (stereo not shown) [Compound 2.291]
< 1000			CCC1(c2cc(Br)cc(C#N)c2)C(C#N)=C(N)Oc2[nH]nc(OC)c21 (stereo not shown) [Compound 2.601]
< 10			COC(=O)Cc1ccc(-c2cc(C#N)cc(C3(C4CCC4)C(C#N)=C(N)Oc4[nH]nc(C)c43)c2)cc1 (stereo not shown) [Compound 2.526]
< 100			Cc1n[nH]c2c1C(c1ccc(CC(=O)O)c(C(F)(F)F)c1)(C1CCC1)C(C#N)=C(N)O2 (stereo not shown) [Compound 2.544]
	< 10000		Cc1n[nH]c2c1C(c1cc(-c3nnn[nH]3)cc(-c3nnn[nH]3)c1)(C1CCC1)C(C#N)=C(N)O2 (stereo not shown) [Compound 2.354]
	< 10		Cc1n[nH]c2c1C(c1cc(C#N)cc(-c3ccc(F)cc3)c1)(C1CCC1)C(C#N)=C(N)O2 (stereo not shown) [Compound 2.328]
< 1000			CCC1(c2ccc(NC(=O)OC)cc2)C(C#N)=C(N)Oc2[nH]nc(C)c21 (stereo not shown) [Compound 2.80.]
< 100			CCC1(c2cccc(Oc3ccccc3)c2)C(C#N)=C(N)Oc2[nH]nc(C)c21 (stereo not shown) [Compound 2.1.]
		EC50 [3]: < 10 nM	Cc1n[nH]c2c1C(c1cc(-c3cccs3)cs1)(C1CCC1)C(C#N)=C(N)O2 (stereo not shown) [Compound 4.16]
< 100			CCc1n[nH]c2c1C(CC)(c1cc(C(F)(F)F)cc(C(F)(F)F)c1)C(C#N)=C(N)O2 (stereo not shown) [Compound 2.84.]
		EC50 [3]: < 10 nM	CC1(C)C=Cc2cc(C3(C4CCC4)C(C#N)=C(N)Oc4[nH]ncc43)cc(F)c2O1 (stereo not shown) [Compound 4.31]
		EC50 [4]: < 10 nM	Cc1n[nH]c2c1C(c1cc(C#N)cc(N(C)C(=O)CCCC(=O)O)c1)(C(C)C)C(C#N)=C(N)O2 (stereo not shown) [Compound 2.694]
		EC50 [3]: < 10 nM	Cc1n[nH]c2c1C(c1cc(Cl)c3c(c1)OCCO3)(C1CCC1)C(C#N)=C(N)O2 (stereo not shown) [Compound 4.5]
< 1000			Cc1n[nH]c2c1C(c1cc(C#N)cc(-c3cc(C(=O)O)cc(C(=O)O)c3)c1)(C1CCC1)C(C#N)=C(N)O2 (stereo not shown) [Compound 2.564]
< 1000			CCc1n[nH]c2c1C(c1ccc(OC)c(Cl)c1)(C(C)C)C(C#N)=C(N)O2 (stereo not shown) [Compound 2.147.]
< 1000			CCc1n[nH]c2c1C(c1ccc(Cl)cc1)(C1CCC1)C(C#N)=C(N)O2 (stereo not shown) [Compound 2.139.]
		EC50 [3]: < 10 nM	Cc1n[nH]c2c1C(c1cc(C(F)(F)F)c3nc(C(=O)O)ccc3c1)(C1CCC1)C(C#N)=C(N)O2 (stereo not shown) [Compound 4.39]
	< 10		N#CC1=C(N)Oc2[nH]ncc2C1(c1cc(C#N)cc(C(F)(F)F)c1)C1CCC1 (stereo not shown) [Compound 2.321]
	< 10		Cc1n[nH]c2c1C(c1cc(Cl)cc(-c3cccc(F)c3)c1)(C1CCC1)C(C#N)=C(N)O2 (stereo not shown) [Compound 2.223]
< 1000			CCc1n[nH]c2c1C(CC)(c1ccc(Oc3ccccc3)cc1)C(C#N)=C(N)O2 (stereo not shown) [Compound 2.130.]

EC50 [1] [nM]	EC50 [2] [nM]	further results	SMILES
< 10			COC(=O)c1cc(Cl)cc(-c2cc(C#N)cc(C3(C4CCC4)C(C#N)=C(N)Oc4[nH]nc(C)c43)c2)c1 (stereo not shown) [Compound 2.517]
		EC50 [3]: < 10 nM	Cc1n[nH]c2c1C(c1cc(-c3ccco3)cs1)(C1CCC1)C(C#N)=C(N)O2 (stereo not shown) [Compound 4.41]
	< 10		Cc1n[nH]c2c1C(c1ccc(N3CCCC3)c(Cl)c1)(C1CCC1)C(C#N)=C(N)O2 (stereo not shown) [Compound 2.268]
		EC50 [3]: < 10 nM	Cc1n[nH]c2c1C(c1ccc3c(c1)CCO3)(C1CCC1)C(C#N)=C(N)O2 (stereo not shown) [Compound 4.32]
	< 10		Cc1n[nH]c2c1C(c1cc(Cl)cc(-c3cccc(Cl)c3)c1)(C1CCC1)C(C#N)=C(N)O2 (stereo not shown) [Compound 2.227]
< 1000			CCCC1(c2cc(C#N)cc(C#N)c2)C(C#N)=C(N)Oc2[nH]nc(OC)c21 (stereo not shown) [Compound 2.604]
< 10000			CCC1(c2cccc(C(F)(F)F)c2)C(C#N)=C(N)Oc2[nH]ncc21 (stereo not shown) [Compound 2.63.]
< 1000			CCc1n[nH]c2c1C(CC)(c1cccc(C(F)(F)F)c1)C(C#N)=C(N)O2 (stereo not shown) [Compound 2.98.]
< 1000			CCC1(c2ccc(Oc3ccccc3)cc2)C(C#N)=C(N)Oc2[nH]nc(C)c21 (stereo not shown) [Compound 2.8.]
< 100			CCc1n[nH]c2c1C(c1ccc(Cl)cc1)(C1CC1)C(C#N)=C(N)O2 (stereo not shown) [Compound 2.114.]
		EC50 [4]: < 100 nM	Cc1n[nH]c2c1C(c1cccc(Br)c1)(C(C)(F)F)C(C#N)=C(N)O2 (stereo not shown) [Compound 2.702]
	< 10		Cc1n[nH]c2c1C(c1cc(C#N)cc(-c3cccc(C(F)(F)F)c3)c1)(C1CCC1)C(C#N)=C(N)O2 (stereo not shown) [Compound 2.325]
	< 10		Cc1n[nH]c2c1C(c1cc(Br)cc(C(F)(F)F)c1)(C1CCC1)C(C#N)=C(N)O2 (stereo not shown) [Compound 2.233]
	< 10		Cc1n[nH]c2c1C(c1cc(Br)cc(I)c1)(C1CCC1)C(C#N)=C(N)O2 (stereo not shown) [Compound 2.358]
< 10			COC(=O)c1ccc(-c2cc(C#N)cc(C3(C4CCC4)C(C#N)=C(N)Oc4[nH]nc(C)c43)c2)cc1F (racemic) [Compound 2.521]
		EC50 [3]: < 10 nM	Cc1n[nH]c2c1C(c1ccc(-c3ccc(F)cc3)s1)(C1CCC1)C(C#N)=C(N)O2 (stereo not shown) [Compound 4.8]
	< 10		Cc1n[nH]c2c1C(c1cc(Cl)cc(C#N)c1)(C(C)C)C(C#N)=C(N)O2 (stereo not shown) [Compound 2.345]
	< 10		Cc1n[nH]c2c1C(c1cc(Cl)cc(-c3ccc(C(F)(F)F)cc3)c1)(C1CCC1)C(C#N)=C(N)O2 (stereo not shown) [Compound 2.250]
